Laboratory results as given in US20230365899A1, “COMPOSITIONS COMPRISING BLEACHING CATALYST, MANUFACTURING PROCESS THEREOF, AND BLEACHING AND CLEANING AGENT COMPRISING SAME” (WEYLCHEM PERFORMANCE PRODUCTS GMBH, priority 2020, published 2023).
Each block holds one compound with its values, some of them ahead of it.

Experiments:
[1] = Reference granulation: stability of catalyst/PVOH mixture in water and on fluidised bed drying; assay type: physicochemical
Protocol: Similar to the process described above for granules 1-7, an aqueous solution of [Mn2(μ-O)3(Me3TACN)2](PF6)2·H2O in water and PVOH were mixed together with the other components to make the granule (corn starch and CaSO4). As the solubility of [Mn2(μ-O)3(Me3TACN)2](PF6)2·H2O in water is relatively low (1.08 wt-% in water at 20° C.—see WO2006/125517), a large amount of water needed to be added to obtain a mixture that has enough of the [Mn2(μ-O)3(Me3TACN)2](PF6)2·H2O catalyst to yield a granule comprising 2 wt-% of [Mn2(μ-O)3(Me3TACN)2](PF6)2·H2O (this would equate to 1.85 L of the aqueous solution of [Mn2(μ-O)3(Me3TACN)2](PF6)2·H2O following the same amounts of chemicals as described in the examples above).
Second observation was that the mixture of the [Mn2(μ-O)3(Me3TACN)2](PF6)2·H2O and PVOH in water was not stable.

[2] = cited from earlier work
[3] = BC-1 (tea stain on cotton) bleaching; conditions: pH 11.5, 1 g/L sodium percarbonate, 40° C., 30 min, Table 3
Protocol: BC-1 (tea stain on cotton) bleaching experiments were carried similarly as described in WO2014/202954. All bleaching experiments were done in duplication.
BC-1 (tea stain on cotton) bleaching was assessed at pH 11.5 in an aqueous solution containing 1 g/L nonionic formulation (Lutensol A07), 0, 1 and 2 μM [Mn2(μ-O)2(μ-CH3COO)(Me4DTNE)]Cl2), 1 g/L sodium percarbonate at 40° C. for 30 min (reference test).
Similarly, the bleaching activity of granule 9 was assessed using the same protocol, except for dissolving granule 9 in demineralised water yielding the same concentrations of catalyst as used in the reference test.

appearance after fluidised bed drying (catalyst decomposition) ([1]; granulation from dilute aqueous solution with PVOH, corn starch, CaSO4): dark brown granules
stability of mixture of catalyst and PVOH in water ([1]; room temperature): not stable
SMILES: CN1CCN(C)CCN(C)CC1.CN1CCN(C)CCN(C)CC1.F[P-](F)(F)(F)(F)F.F[P-](F)(F)(F)(F)F.O.[Mn+4].[Mn+4].[O-2].[O-2].[O-2] [[Mn2(μ-O)3(Me3TACN)2](PF6)2·H2O, [Mn2(μ-O)3(Me3-TACN)2](PF6)2·H2O]
water solubility ([2]; at 20° C.): 10.8 mg/mL
solubility in water ([2]; in water at 20° C., see WO2006/125517): 1.08 wt-%

SMILES: CC(=O)[O-].CN1CCN(C)CCN(CCN2CCN(C)CCN(C)CC2)CC1.[Cl-].[Cl-].[Mn+3].[Mn+4].[O-2].[O-2] [[Mn2(μ-O)2(μ-CH3COO)(Me4DTNE)]Cl2]
ΔR* BC-1 bleaching ([3]; 1.0 μM catalyst): 25.2 (0.1)
ΔR* BC-1 bleaching ([3]; 2.0 μM catalyst): 26.3 (0.1)

time the mixture of catalyst and PVOH in solution remained stable ([1]; room temperature): at least 4 days
SMILES: CN1CCN(C)CCN(C)CC1.CN1CCN(C)CCN(C)CC1.O=S(=O)([O-])[O-].[Mn+4].[Mn+4].[O-2].[O-2].[O-2] [MnTACNSO4, [Mn2(μ-O)3(Me3TACN)2]SO4]
